Test system: adult subjects with TRD
Test: Phase 2b trial in TRD: safety, treatment emergent adverse events
Format: in vivo, human
Description: Another objective was to evaluate the safety and tolerability of psilocybin in subjects with TRD based on AEs, changes in vital signs, and suicidal ideation/behaviour (measured using the Columbia-Suicide Severity Rating Scale [C-SSRS]) score at all visits.
Throughout the course of the study, all adverse events (AEs) were monitored and recorded and included the AE's description, start and end date, seriousness, severity, action taken, and relationship to the treatment. If AEs occurred, the first concern was the safety of the study subjects.
An AE can therefore be any unfavorable and unintended sign (including an abnormal laboratory finding, for example), symptom, or disease temporally associated with the use of a medicinal product, whether considered related to the medicinal product.
AEs were coded by Preferred Term (PT) using the Medical Dictionary for Regulatory Activities (MedDRA) classification. All reported AEs with onset or worsening after the administration of study medication were included in the analysis. The incidence of AEs was summarized by treatment group, and by severity and relationship to psilocybin. Serious AEs and AEs leading to withdrawal from the study will be tabulated.
A TEAE is defined as any AE that has an onset on or after the dose of psilocybin, or any pre-existing condition that has worsened on or after the dose of psilocybin.
The incidence of TEAEs and treatment-related AEs were summarized by maximum severity and most-related relationship to psilocybin by MedDRA primary system organ class and PT. The summary included the total number and percentage of subjects reporting an event.

CN(C)CCc1c[nH]c2cccc(OP(=O)(O)O)c12 [COMP360, psilocybin]
TEAE Depression, participants (25 mg (N = 79)): 4 (5.1) n (%)
TEAE Dizziness, participants (25 mg (N = 79)): 6 (7.6) n (%)
TEAE Euphoric mood, participants (25 mg (N = 79)): 4 (5.1) n (%)
TEAE Fatigue, participants (25 mg (N = 79)): 12 (15.2) n (%)
TEAE Headache, participants (25 mg (N = 79)): 27 (34.2) n (%)
TEAE Insomnia, participants (25 mg (N = 79)): 8 (10.1) n (%)
TEAE Irritability, participants (25 mg (N = 79)): 4 (5.1) n (%)
TEAE Mood altered, participants (25 mg (N = 79)): 7 (8.9) n (%)
TEAE Myalgia, participants (25 mg (N = 79)): 5 (6.3) n (%)
TEAE Nausea, participants (25 mg (N = 79)): 18 (22.8) n (%)
TEAE Panic reaction, participants (25 mg (N = 79)): 4 (5.1) n (%)
TEAE Paraesthesia, participants (25 mg (N = 79)): 3 (3.8) n (%)
TEAE Suicidal ideation, participants (25 mg (N = 79)): 5 (6.3) n (%)
TEAE Thinking abnormal, participants (25 mg (N = 79)): 0 n (%)
TESAE Adjustment disorder with anxiety, participants (25 mg (N = 79)): 1 (1.3) n (%)
TESAE Adjustment disorder with mixed anxiety and depressed mood, participants (25 mg (N = 79)): 1 (1.3) n (%)
TESAE Depression, participants (25 mg (N = 79)): 0 n (%)
TESAE Drug withdrawal syndrome*, participants (25 mg (N = 79)): 1 (1.3) n (%)
TESAE Hospitalisation, participants (25 mg (N = 79)): 0 n (%)
TESAE Intentional self-injury, participants (25 mg (N = 79)): 2 (2.5) n (%)
TESAE Suicidal behaviour, participants (25 mg (N = 79)): 3 (3.8) n (%)
TESAE Suicidal ideation, participants (25 mg (N = 79)): 2 (2.5) n (%)
Patients with TEAEs of suicidal ideation, suicidal behaviour and intentional self-injury (25 mg group): seven
Patients with TESAEs of suicidal ideation, suicidal behaviour and intentional self-injury (25 mg group): four
MADRS item 10 (suicidality) scores post-administration, comparison of groups (25 mg, 10 mg, 1 mg groups, blinded remote rater): no difference between the three groups
Any TESAE, participants (Overall (N = 233)): 12 (5.2) n (%)
TEAE Abdominal pain upper, participants (Overall (N = 233)): 7 (3.0) n (%)
TEAE Anxiety, participants (Overall (N = 233)): 23 (9.9) n (%)
TEAE Back pain, participants (Overall (N = 233)): 9 (3.9) n (%)
TEAE Depressed mood, participants (Overall (N = 233)): 12 (5.2) n (%)
TEAE Depression, participants (Overall (N = 233)): 15 (6.4) n (%)
TEAE Dizziness, participants (Overall (N = 233)): 8 (3.4) n (%)
TEAE Euphoric mood, participants (Overall (N = 233)): 13 (5.6) n (%)
TEAE Fatigue, participants (Overall (N = 233)): 24 (10.3) n (%)
TEAE Headache, participants (Overall (N = 233)): 63 (27.0) n (%)
TEAE Insomnia, participants (Overall (N = 233)): 33 (14.2) n (%)
TEAE Irritability, participants (Overall (N = 233)): 7 (3.0) n (%)
TEAE Mood altered, participants (Overall (N = 233)): 11 (4.7) n (%)
TEAE Myalgia, participants (Overall (N = 233)): 8 (3.4) n (%)
TEAE Nausea, participants (Overall (N = 233)): 29 (12.4) n (%)
TEAE Panic reaction, participants (Overall (N = 233)): 6 (2.6) n (%)
TEAE Paraesthesia, participants (Overall (N = 233)): 8 (3.4) n (%)
TEAE Suicidal ideation, participants (Overall (N = 233)): 14 (6.0) n (%)
TEAE Thinking abnormal, participants (Overall (N = 233)): 4 (1.7) n (%)
TESAE Adjustment disorder with anxiety, participants (Overall (N = 233)): 1 (0.4) n (%)
TESAE Adjustment disorder with mixed anxiety and depressed mood, participants (Overall (N = 233)): 1 (0.4) n (%)
TESAE Depression, participants (Overall (N = 233)): 1 (0.4) n (%)
TESAE Drug withdrawal syndrome*, participants (Overall (N = 233)): 1 (0.4) n (%)
TESAE Hospitalisation, participants (Overall (N = 233)): 1 (0.4) n (%)
TESAE Intentional self-injury, participants (Overall (N = 233)): 5 (2.1) n (%)
TESAE Suicidal behaviour, participants (Overall (N = 233)): 3 (1.3) n (%)
TESAE Suicidal ideation, participants (Overall (N = 233)): 4 (1.7) n (%)
Patients with TEAEs of suicidal ideation, suicidal behaviour and intentional self-injury (all groups): 17 patients
Patients with TESAEs of suicidal ideation, suicidal behaviour and intentional self-injury (all groups): nine
TEAEs being mild or moderate in severity (all groups): more than 90%
TEAEs occurring on the day of administration that resolved on the same day or the day after (all groups): 77.4%
TEAEs of suicidal ideation, suicidal behaviour and intentional self-injury (all groups): 27 events
TESAEs of suicidal ideation, suicidal behaviour and intentional self-injury (all groups): 14 events
TESAEs of suicidality/self-injury that occurred at least one week after the session (all groups): 10 events out of 14
Participants reported at least one TEAE (all groups (233 patients)): 179 participants
Timing of suicidal behaviours after the psilocybin therapy session (all patients reporting these events were non responders at event onset): occurred at least one month after the psilocybin therapy session
Tolerability (single dose 1, 10 or 25 mg): generally well tolerated
TEAEs involving hallucination (25 mg and 10 mg groups only) and illusion (all groups): onset and resolution (started on the day of administration): resolved on the same day

— patent publication US20250000881A1, “TREATMENT OF TREATMENT RESISTANT […] PSILOCYBIN” (COMPASS […], priority 2021, published 2025)
